# Measured values taken from ChEMBL document CHEMBL4002627, “Quinolidene based monocarbonyl curcumin analogues as promising antimycobacterial agents: Synthesis and molecular docking study” (Bioorg Med Chem Lett, 2017).
# Assays:
# Staphylococcus aureus = test: Antibacterial activity against Staphylococcus aureus ATCC 29213 after 12 hrs; format: functional; conditions: ATCC 29213, 12 h
# Pseudomonas fluorescens = test: Antibacterial activity against Pseudomonas fluorescens ATCC 13525 after 8 hrs; format: functional; conditions: ATCC 13525, 8 h
# [1] = Cytotoxicity against human HCT116 cells assessed as growth inhibition at 3 ug/ml after 48 hrs by MTT assay relative to control; format: cell-based, HCT-116; conditions: read-out: GI
# [2] = (§1) Cytotoxicity against human HCT116 cells assessed as growth inhibition after 48 hrs by MTT assay; format: cell-based, HCT-116; conditions: HCT116 cells
# HCT-116 = test: as §1; format: cell-based; conditions: hct-116, 48 h
# Bacillus subtilis = test: Antibacterial activity against Bacillus subtilis ATCC 23857 after 12 hrs; format: functional; conditions: ATCC 23857, 12 h
# [3] = Cytotoxicity against human HCT116 cells assessed as growth inhibition at 30 ug/ml after 48 hrs by MTT assay relative to control; format: cell-based, HCT-116; conditions: read-out: GI
# [4] = test system: Mycobacterium tuberculosis; test: Antimycobacterial activity against dormant state of Mycobacterium tuberculosis H37Ra assessed as growth inhibition at 30 ug/ml after 12 days by XTT reduction menadione assay relative to control; format: functional; conditions: 288 h, read-out: GI
# [5] = Selectivity index, ratio of GI90 for human HCT116 cells to MIC90 for dormant state of Mycobacterium tuberculosis H37Ra; format: toxicity; conditions: read-out: Selectivity Index
# [6] = Cytotoxicity against human A549 cells assessed as growth inhibition at 10 ug/ml after 48 hrs by MTT assay relative to control; format: cell-based; conditions: read-out: GI
# [7] = Selectivity index, ratio of GI90 for human A549 cells to MIC90 for dormant state of Mycobacterium tuberculosis H37Ra; format: toxicity; conditions: read-out: Selectivity Index
# [8] = test system: Mycobacterium tuberculosis; test: Antimycobacterial activity against dormant state of Mycobacterium tuberculosis H37Ra assessed as growth inhibition at 10 ug/ml after 12 days by XTT reduction menadione assay relative to control; format: functional; conditions: 288 h, read-out: GI
# [9] = Selectivity index, ratio of GI90 for human MCF7 cells to MIC90 for dormant state of Mycobacterium tuberculosis H37Ra; format: toxicity; conditions: read-out: Selectivity Index
# [10] = Selectivity index, ratio of GI90 for human MCF7 cells to MIC90 for dormant state of dormant state of Mycobacterium bovis BCG; format: toxicity; conditions: read-out: Selectivity Index
# [11] = Selectivity index, ratio of GI90 for human HCT116 cells to MIC90 for dormant state of dormant state of Mycobacterium bovis BCG; format: toxicity; conditions: read-out: Selectivity Index
# [12] = test system: Mycobacterium tuberculosis; test: Antimycobacterial activity against dormant state of Mycobacterium tuberculosis H37Ra assessed as growth inhibition at 3 ug/ml after 12 days by XTT reduction menadione assay relative to control; format: functional; conditions: 288 h, read-out: GI
# [13] = Cytotoxicity against human MCF7 cells assessed as growth inhibition at 10 ug/ml after 48 hrs by MTT assay relative to control; format: cell-based; conditions: read-out: GI
# [14] = Cytotoxicity against human A549 cells assessed as growth inhibition at 30 ug/ml after 48 hrs by MTT assay relative to control; format: cell-based; conditions: read-out: GI
# Escherichia coli = test: Antibacterial activity against Escherichia coli ATCC […] after 8 hrs; format: functional
# [15] = Cytotoxicity against human MCF7 cells assessed as growth inhibition at 3 ug/ml after 48 hrs by MTT assay relative to control; format: cell-based; conditions: read-out: GI
# [16] = test system: Mycobacterium tuberculosis; test: Antimycobacterial activity against dormant state of Mycobacterium tuberculosis H37Ra by two fold dilution method; format: functional
# [17] = Cytotoxicity against human MCF7 cells assessed as growth inhibition at 30 ug/ml after 48 hrs by MTT assay relative to control; format: cell-based; conditions: read-out: GI
# A549 = test: (§2) Cytotoxicity against human A549 cells assessed as growth inhibition after 48 hrs by MTT assay; format: cell-based; conditions: a549, 48 h
# [18] = as §2; format: cell-based; conditions: A549 cells
# MCF7 = test: (§3) Cytotoxicity against human MCF7 cells assessed as growth inhibition after 48 hrs by MTT assay; format: cell-based; conditions: mcf7, 48 h
# [19] = as §3; format: cell-based; conditions: MCF7 cells
# [20] = Cytotoxicity against human HCT116 cells assessed as growth inhibition at 10 ug/ml after 48 hrs by MTT assay relative to control; format: cell-based, HCT-116; conditions: read-out: GI
# [21] = Selectivity index, ratio of GI90 for human A549 cells to MIC90 for dormant state of dormant state of Mycobacterium bovis BCG; format: toxicity; conditions: read-out: Selectivity Index
# [22] = Cytotoxicity against human A549 cells assessed as growth inhibition at 3 ug/ml after 48 hrs by MTT assay relative to control; format: cell-based; conditions: read-out: GI
SMILES,MIC50 (Staphylococcus aureus),MIC90 (Staphylococcus aureus),MIC50 (Pseudomonas fluorescens),MIC90 (Pseudomonas fluorescens),"inhibition at 48 h, 3 ug/ml [1]",GI50 at 48 h [2],GI90 (HCT-116),MIC50 (Bacillus subtilis),selectivity ratio [5],selectivity ratio [7],selectivity ratio [9],selectivity ratio [10],selectivity ratio [11],MIC50 [16],MIC90 [16],GI90 (A549),GI50 at 48 h [18],GI90 (MCF7),GI50 at 48 h [19],selectivity ratio [21],also measured
COc1ccc2cc(/C=C3\CN(C)C/C(=C\c4cc5ccc(OC)cc5nc4Cl)C3=O)c(Cl)nc2c1,> 30 mg/L,> 30 mg/L,> 30 mg/L,> 30 mg/L,-8.6%,> 100 mg/L,> 100 mg/L,> 30 mg/L,> 12,> 12,> 12,> 10,> 10,2.3 mg/L,7.8 mg/L,> 100 mg/L,> 100 mg/L,> 100 mg/L,> 100 mg/L,> 10,"MIC90 (Bacillus subtilis): > 30 mg/L; inhibition at 48 h, 30 ug/ml [3]: 14.1%; inhibition of growth at 30 µg/mL [4]: 98.9%; inhibition at 48 h, 10 ug/ml [6]: 0%; inhibition of growth at 10 µg/mL [8]: 100%; inhibition of growth at 3 µg/mL [12]: 66.1%; inhibition at 48 h, 10 ug/ml [13]: -5.5%; inhibition at 48 h, 30 ug/ml [14]: 0%; MIC50 (Escherichia coli): > 30 mg/L; MIC90 (Escherichia coli): > 30 mg/L; inhibition at 48 h, 3 ug/ml [15]: -13.4%; inhibition at 48 h, 30 ug/ml [17]: 44.1%; inhibition at 48 h, 10 ug/ml [20]: -1.3%; inhibition at 48 h, 3 ug/ml [22]: 0%"
O=C1/C(=C/c2cc3cc(F)ccc3nc2Cl)CNC/C1=C\c1cc2cc(F)ccc2nc1Cl,> 30 mg/L,> 30 mg/L,> 30 mg/L,> 30 mg/L,35%,27.6 mg/L,> 100 mg/L,> 30 mg/L,> 3,> 3,> 3,> 10,> 10,13.7 mg/L,> 30 mg/L,> 100 mg/L,> 100 mg/L,> 100 mg/L,> 100 mg/L,> 10,"MIC90 (Bacillus subtilis): > 30 mg/L; inhibition at 48 h, 30 ug/ml [3]: 55.8%; inhibition of growth at 30 µg/mL [4]: 76.9%; inhibition at 48 h, 10 ug/ml [6]: 0%; inhibition of growth at 10 µg/mL [8]: 49%; inhibition of growth at 3 µg/mL [12]: 41.1%; inhibition at 48 h, 10 ug/ml [13]: 41.1%; inhibition at 48 h, 30 ug/ml [14]: 0%; MIC50 (Escherichia coli): > 30 mg/L; MIC90 (Escherichia coli): > 30 mg/L; inhibition at 48 h, 3 ug/ml [15]: 40.9%; inhibition at 48 h, 30 ug/ml [17]: 48.5%; inhibition at 48 h, 10 ug/ml [20]: 45.3%; inhibition at 48 h, 3 ug/ml [22]: -5.8%"
CO[C@H]1/C=C/O[C@@]2(C)Oc3c(C)c(O)c4c(O)c(c(/C=N/N5CCN(C)CC5)c(O)c4c3C2=O)NC(=O)/C(C)=C\C=C\[C@H](C)[C@H](O)[C@@H](C)[C@@H](O)[C@@H](C)[C@H](OC(C)=O)[C@@H]1C [RIFAMPIN],–,–,–,–,–,> 100 mg/L,> 100 mg/L,–,> 133,> 133,> 133,> 123,> 123,0.0019 mg/L,0.02 mg/L,> 100 mg/L,> 100 mg/L,> 100 mg/L,> 100 mg/L,> 123,–
